Test systems include IGROV-1; M19-MEL; SF-539; NCI-H23; UACC-257; RPMI-8226; MOLT-4; SW-620; UO-31; UACC-62; OVCAR-3; SK-OV-3; HCT-116; SK-MEL-2; SF-295; HT-29; OVCAR-4; CAKI-1; DU-145; Hs-578T.
Common to all, as to experiment: inhibition of tumour cell growth, NCI panel, 48 h

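Cultured in 96-well plates, cells were exposed to test compound for 48 hours across five concentrations. Abbreviation: GI50, concentration required for 50% inhibition of growth.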 The source made the active and inactive calls. Rule as the data show it: active = GI50 up to about 1.1 µM and inactive = higher. Where only a bound is given, the exact number is not on record here.

`CC(=O)OC1(C(C)=O)CC2(c3ccccc3)OC1(c1ccccc1)c1ccccc12` (stereo unspecified): the GI50 was 4.91 µM (inactive) with IGROV-1; 9.77 µM (inactive) in the experiment with M19-MEL; 32 µM (inactive) with SF-539; 8.34 µM (inactive) in the experiment on NCI-H23; 4.1 µM (inactive) in the experiment on UACC-257; 3.18 µM (inactive) with RPMI-8226. Also, the GI50 in the experiment with MOLT-4 is 5.81 µM (inactive); in the experiment with SW-620, 16.7 µM (inactive); with UO-31, 12 µM (inactive); in the experiment on UACC-62, 4.36 µM (inactive); in the experiment on OVCAR-3, 11.4 µM (inactive); with SK-OV-3 it was 46.9 µM (inactive). The GI50 with HCT-116 is 7.78 µM (inactive); with SK-MEL-2 it was 12.6 µM (inactive); in the experiment on SF-295 it was 33.3 µM (inactive); with HT-29 it was 30.1 µM (inactive).
For `OCC(O)C(OC1OC(CO)C(O)C(O)C1O)c1nn(-c2ccccc2)c2nc3cc(Cl)ccc3nc12` (stereo unspecified), the GI50 in the experiment on M19-MEL, with SF-539, in the experiment on NCI-H23, in the experiment on UACC-257, in the experiment on RPMI-8226 and with MOLT-4 was > 100 µM (inactive) in each case. For the same molecule, the GI50 in the experiment on UO-31, in the experiment on UACC-62, in the experiment with OVCAR-3, in the experiment with SK-OV-3, in the experiment with OVCAR-4 and in the experiment on HCT-116 was > 100 µM (inactive) throughout. The GI50 with SF-295 and in the experiment with HT-29 was > 100 µM (inactive) throughout.
For the molecule `COC(=O)C(CCC#N)(CCC#N)C(=O)OC`, the GI50 in the experiment on IGROV-1, in the experiment with M19-MEL, in the experiment with SF-539, in the experiment with NCI-H23, with UACC-257 and in the experiment with RPMI-8226 was > 100 µM (inactive) each time. The GI50 in the experiment with MOLT-4, with SW-620, in the experiment on UO-31, with UACC-62, in the experiment on OVCAR-3 and with SK-OV-3 was > 100 µM (inactive) each time. Also, the GI50 with HCT-116, in the experiment with SF-295 and in the experiment on HT-29 was > 100 µM (inactive) each time.
`O=c1oc(=O)c2oc3ccccc3oc1=2`: the GI50 in the experiment on IGROV-1, in the experiment on M19-MEL, with SF-539, with NCI-H23, in the experiment with UACC-257 and in the experiment with MOLT-4 was > 100 µM (inactive) throughout. Also, the GI50 in the experiment with SW-620, in the experiment on UO-31, with UACC-62, in the experiment on OVCAR-3, in the experiment on CAKI-1 and in the experiment with SK-OV-3 was > 100 µM (inactive) throughout. Moreover, the GI50 in the experiment on OVCAR-4, in the experiment on HCT-116, in the experiment on SK-MEL-2, in the experiment with SF-295 and in the experiment with HT-29 was > 100 µM (inactive) throughout.
In the case of `OCC(O)COc1c(Cl)ccc(Cl)c1Cl` (stereo unspecified), the GI50 in the experiment on IGROV-1, in the experiment on M19-MEL, with SF-539, in the experiment on NCI-H23, in the experiment with UACC-257 and in the experiment with MOLT-4 was > 100 µM (inactive) each time. For the same molecule, the GI50 in the experiment with SW-620, in the experiment on UO-31, with UACC-62, with OVCAR-3, with CAKI-1 and in the experiment with SK-OV-3 was > 100 µM (inactive) throughout. For the same molecule, the GI50 with OVCAR-4, with HCT-116, in the experiment with SK-MEL-2, in the experiment with SF-295 and in the experiment with HT-29 was > 100 µM (inactive) throughout.
With `Cc1ccc(-c2cc(-c3ccco3)c(C#N)c(O)n2)cc1`, the GI50 with IGROV-1, with M19-MEL, with SF-539, with NCI-H23, in the experiment with UACC-257 and in the experiment with RPMI-8226 was > 100 µM (inactive) each time. The GI50 is > 100 µM (inactive) in the experiment on MOLT-4; > 100 µM (inactive) in the experiment with SW-620; > 100 µM (inactive) with UO-31; > 100 µM (inactive) in the experiment with UACC-62; > 100 µM (inactive) in the experiment with OVCAR-3; 29.4 µM (inactive) in the experiment on SK-OV-3. Besides, the GI50 was 45.1 µM (inactive) with OVCAR-4, > 100 µM (inactive) with HCT-116, > 100 µM (inactive) with SF-295 and > 100 µM (inactive) with HT-29.
As for `CCOC(=O)c1sc2c(sc(=O)n2-c2ccccc2)c1O`, the GI50 in the experiment with IGROV-1 was > 100 µM (inactive); with M19-MEL, > 100 µM (inactive); in the experiment with SF-539 it was > 100 µM (inactive); in the experiment on NCI-H23, 65.8 µM (inactive); with UACC-257, > 100 µM (inactive); in the experiment on MOLT-4 it was > 100 µM (inactive). For the same molecule, the GI50 in the experiment on UO-31 was > 100 µM (inactive); with UACC-62 it was > 100 µM (inactive); in the experiment with OVCAR-3, 88.7 µM (inactive); with CAKI-1, > 100 µM (inactive); in the experiment on SK-OV-3 it was > 100 µM (inactive); in the experiment with OVCAR-4, > 100 µM (inactive). Also, the GI50 in the experiment with HCT-116, with SK-MEL-2, in the experiment on SF-295 and in the experiment on HT-29 was > 100 µM (inactive) throughout.
Take `Cc1[nH]n(-c2ncc(C#N)c(=O)[nH]2)c(=O)c1CCO`: the GI50 in the experiment with IGROV-1 is > 100 µM (inactive); with SF-539, > 100 µM (inactive); in the experiment with NCI-H23, > 100 µM (inactive); in the experiment with UACC-257, > 100 µM (inactive); with RPMI-8226, > 100 µM (inactive); in the experiment on MOLT-4, 75.5 µM (inactive). For the same molecule, the GI50 in the experiment on SW-620, in the experiment on UO-31, in the experiment with UACC-62, in the experiment on OVCAR-3, in the experiment with DU-145 and in the experiment with CAKI-1 was > 100 µM (inactive) throughout. Also, the GI50 in the experiment on SK-OV-3, with OVCAR-4, with HCT-116, in the experiment on SK-MEL-2, in the experiment on Hs-578T and in the experiment on SF-295 was > 100 µM (inactive) throughout. Moreover, the GI50 with HT-29 was > 100 µM (inactive).
Turning to `CCN(CC)CCN(/C(=N/c1ccccc1)N1CCOCC1)c1ccccc1`, the GI50 in the experiment with IGROV-1 was 48.4 µM (inactive); with SF-539, > 100 µM (inactive); in the experiment with NCI-H23 it was 70 µM (inactive); in the experiment on UACC-257, > 100 µM (inactive); in the experiment with RPMI-8226, > 100 µM (inactive); with MOLT-4, > 100 µM (inactive). The GI50 in the experiment with SW-620, with UO-31, in the experiment with UACC-62, with OVCAR-3, in the experiment with DU-145 and in the experiment with CAKI-1 was > 100 µM (inactive) each time. Moreover, the GI50 is > 100 µM (inactive) with SK-OV-3; 95.7 µM (inactive) in the experiment with OVCAR-4; 9.89 µM (inactive) in the experiment with HCT-116; > 100 µM (inactive) with SK-MEL-2; > 100 µM (inactive) with Hs-578T; > 100 µM (inactive) in the experiment with SF-295. Moreover, the GI50 in the experiment with HT-29 was 42.1 µM (inactive).
As for `CCOC(=O)/C(C#N)=C/c1ccc2c(c1)CC1(C2)Cc2cc(CC)c(C(C)O)cc2C1` (stereo unspecified), the GI50 was 23 µM (inactive) in the experiment with IGROV-1; 9.82 µM (inactive) in the experiment on SF-539; 13.5 µM (inactive) in the experiment with NCI-H23; 15.8 µM (inactive) in the experiment with UACC-257; 6.84 µM (inactive) with RPMI-8226; 4.59 µM (inactive) with MOLT-4. Further, the GI50 in the experiment with SW-620 was 5.38 µM (inactive); in the experiment on UO-31, 21.4 µM (inactive); with UACC-62, 7.83 µM (inactive); in the experiment with OVCAR-3 it was 8.04 µM (inactive); in the experiment with DU-145 it was 19.2 µM (inactive); in the experiment on CAKI-1, 57.9 µM (inactive). For the same molecule, the GI50 in the experiment with SK-OV-3 was 15.4 µM (inactive); with OVCAR-4, 9.59 µM (inactive); with HCT-116 it was 4.27 µM (inactive); with SK-MEL-2, 7.21 µM (inactive); in the experiment on Hs-578T, 10 µM (inactive); in the experiment on SF-295, 15.7 µM (inactive). Moreover, the GI50 in the experiment with HT-29 is 19.1 µM (inactive).
For `CCC(=O)Oc1ccc2c(c1)c(=O)c1c(NCCCN(C)C)ccc3nnn2c31`, the GI50 in the experiment on IGROV-1 is 0.0914 µM (active); with SF-539, 1.71 µM (inactive); with NCI-H23 it was 3.35 µM (inactive); with UACC-257, 10.6 µM (inactive); in the experiment on RPMI-8226, 0.767 µM (active); in the experiment on MOLT-4, < 0.0204 µM (active). For the same molecule, the GI50 is 0.322 µM (active) in the experiment on SW-620; 0.953 µM (active) with UO-31; 11.2 µM (inactive) in the experiment with UACC-62; 7 µM (inactive) in the experiment with OVCAR-3; 1.04 µM (active) with DU-145; 0.664 µM (active) in the experiment with CAKI-1. Further, the GI50 in the experiment on SK-OV-3 was 4.36 µM (inactive); in the experiment with OVCAR-4 it was 0.548 µM (active); in the experiment with HCT-116, 0.334 µM (active); with SK-MEL-2, 13 µM (inactive); in the experiment on Hs-578T, 5.56 µM (inactive); with SF-295, 2.45 µM (inactive). For the same molecule, the GI50 in the experiment on HT-29 is 0.69 µM (active).
In the case of `Oc1ccccc1/C=N/Nc1nnc2c3ccccc3c3ccccc3c2n1`, the GI50 in the experiment with IGROV-1 is 39.9 µM (inactive); in the experiment with SF-539, > 100 µM (inactive); with NCI-H23, > 100 µM (inactive); in the experiment on UACC-257, 25.2 µM (inactive); in the experiment with RPMI-8226, > 100 µM (inactive); in the experiment with MOLT-4, > 100 µM (inactive). The GI50 in the experiment on SW-620 was 82.4 µM (inactive); with UO-31, > 100 µM (inactive); in the experiment with UACC-62, 61.4 µM (inactive); in the experiment on OVCAR-3 it was 14.6 µM (inactive); with DU-145, > 100 µM (inactive); with CAKI-1, > 100 µM (inactive). For the same molecule, the GI50 in the experiment with SK-OV-3 is 58.3 µM (inactive); in the experiment on OVCAR-4, > 100 µM (inactive); with HCT-116, > 100 µM (inactive); in the experiment with SK-MEL-2, 55.5 µM (inactive); in the experiment on Hs-578T, > 100 µM (inactive); in the experiment with SF-295 it was 32.8 µM (inactive). In addition, the GI50 with HT-29 was > 100 µM (inactive).

The record behind these values is ChEMBL document CHEMBL1201862, “PubChem BioAssay data set” (2004).
